Where a name gives a salt, the structure may show the parent alone. Read-outs that look alike come from different tables or passages of the source.
Experiments:
[1] = tested on: epithelial carcinoma A431 cell line; experiment: MTT Cell Proliferation Assay, A431 cells; type: cell-based; details: for MTT Assay IC50(A431/MDBK): ratio in parentheses: ratio MDBK IC50 / A431 IC50 (selectivity)
Method in brief: (§1)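 Each concentration ran in quadruplicate across duplicate plates, with compounds serially diluted in DMSO and delivered at 0.5% DMSO in 0.5% FBS medium for 3 days.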

[2] = tested on: MDBK line; experiment: MTT Cell Proliferation Assay, MDBK cells; type: cell-based, bovine
Method in brief: as §1

[3] = biological target: T1, EGFR (Homo sapiens, UniProt P00533); experiment: EGFR in-cell Western (ICW) screening protocol (EGFR inhibition assay); type: cell-based; design: ICW 1 / ICW 2 / ICW Avg: unit not given here; details: for ICW assay: Table 10, % Inhibition of EGF dependent EGFR phosphorylation in A431 cells, compound 125 μM in assay; for ICW Avg / ICW 1 / ICW 2: ICW assay; for ICW Avg: average of runs 1 and 2; for ICW 1: run 1; for ICW 2: run 2
T1 construct: host or cells: A431
T1 sequence (P00533 25-1210): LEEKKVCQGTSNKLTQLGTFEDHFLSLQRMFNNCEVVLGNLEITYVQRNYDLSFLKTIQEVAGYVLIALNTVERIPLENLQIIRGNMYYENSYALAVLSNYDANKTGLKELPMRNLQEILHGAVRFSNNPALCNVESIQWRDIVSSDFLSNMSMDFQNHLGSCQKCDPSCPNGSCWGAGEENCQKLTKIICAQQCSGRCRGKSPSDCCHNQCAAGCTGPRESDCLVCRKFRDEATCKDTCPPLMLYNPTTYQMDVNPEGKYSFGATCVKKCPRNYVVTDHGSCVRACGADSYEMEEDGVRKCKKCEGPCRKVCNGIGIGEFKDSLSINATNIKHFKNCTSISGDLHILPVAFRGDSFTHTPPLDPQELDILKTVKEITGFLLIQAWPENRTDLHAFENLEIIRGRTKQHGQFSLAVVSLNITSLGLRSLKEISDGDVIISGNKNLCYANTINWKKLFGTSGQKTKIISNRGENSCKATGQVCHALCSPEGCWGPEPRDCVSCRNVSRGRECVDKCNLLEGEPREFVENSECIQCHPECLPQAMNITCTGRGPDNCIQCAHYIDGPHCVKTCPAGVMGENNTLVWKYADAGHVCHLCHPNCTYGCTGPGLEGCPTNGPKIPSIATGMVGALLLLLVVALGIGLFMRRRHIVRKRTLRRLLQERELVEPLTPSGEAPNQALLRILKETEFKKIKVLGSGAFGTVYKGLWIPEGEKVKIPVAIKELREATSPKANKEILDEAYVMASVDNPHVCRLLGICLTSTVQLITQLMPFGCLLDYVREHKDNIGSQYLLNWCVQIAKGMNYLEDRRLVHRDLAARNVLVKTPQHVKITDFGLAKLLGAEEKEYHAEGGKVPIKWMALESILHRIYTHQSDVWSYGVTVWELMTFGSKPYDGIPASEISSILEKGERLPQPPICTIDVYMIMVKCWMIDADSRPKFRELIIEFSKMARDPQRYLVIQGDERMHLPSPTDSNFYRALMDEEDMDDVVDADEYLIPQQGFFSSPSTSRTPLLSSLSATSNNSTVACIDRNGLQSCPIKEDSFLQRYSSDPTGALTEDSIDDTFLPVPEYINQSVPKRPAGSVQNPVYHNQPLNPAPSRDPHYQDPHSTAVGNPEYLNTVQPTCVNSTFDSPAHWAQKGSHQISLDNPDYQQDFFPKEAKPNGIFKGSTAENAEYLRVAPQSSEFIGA
Method in brief: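 In-cell Western read-out: fixed A431 cells were co-stained for total EGFR and phospho-EGFR (Tyr1173; some runs Tyr1045). Before fixation, cells were serum-starved for 2 h, exposed to compound for 4 h, then given EGF for 10 min, usually at 10 ng/ml final (6.6 or 12.5 ng/ml in some runs).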

[4] = Homo sapiens, A-431, 72 h, Table 10, first of x/y(ratio): A431, three day treatment, unit not printed (doses in μM), read-out: MTT assay (first value)
[5] = Bos taurus, MDBK, 72 h, Table 10, second of x/y(ratio): MDBK, three day treatment, unit not printed (doses in μM), read-out: MTT assay (second value)
[6] = Homo sapiens, A-431, A431 cells, first value of cell, read-out: MTT Assay IC50(A431/MDBK): A431
[7] = Bos taurus, MDBK, MDBK cells, second value of cell, read-out: MTT Assay IC50(A431/MDBK): MDBK
[8] = Homo sapiens, A-431, first value of 'a/b (c)', taken as A431 cells, read-out: MTT Screen, first value of cell
[9] = Bos taurus, MDBK, second value of 'a/b (c)', taken as MDBK cells, read-out: MTT Screen, second value of cell
[10] = A431 cells, first value of cell, read-out: MTT Assay IC50(A431/MDBK): A431
[11] = MDBK cells, second value of cell, read-out: MTT Assay IC50(A431/MDBK): MDBK

Row | IC50 [1, 6] [µM] | ICW Avg [3] | ICW 1 [3] | ICW 2 [3] | IC50 [1, 8] [µM] | ICW Screen (ICW Inhibition) [3] | Compound | further results
1 |  |  |  |  |  |  | CC(=O)c1cccc(NC(=S)Nc2ccc(S(=O)(=O)Nc3c(C)cc(C)cc3C)cc2)c1 [AD4-12391] | IC50 [1, 4]: 11.1 µM; IC50 [2, 5]: 9.09 µM; ICW assay [3]: 37.4191
2 | 44.4 | 50.76 | 47.95 | 53.57 |  |  | Cc1cc(C)nc(Nc2nc(-c3ccccc3)c3cc(Cl)ccc3n2)n1 [compound 11316] | MTT Assay IC50(A431/MDBK): ratio in parentheses [1]: 0.45; IC50 [2, 7]: 19.9 µM
3 |  |  |  |  | 6.77 | 31.244 | Cc1ccc(NS(=O)(=O)c2ccc(NC(=S)NC(=O)CC(C)C)cc2)cc1C [AD4-12024] | IC50 [2, 9]: 6.34 µM
4 |  |  |  |  | 15.1 | 48.543 | Cc1ccc(NS(=O)(=O)c2ccc(NC(=S)NC(=O)C3CC3)cc2)c(C)c1 [AD4-12097] | IC50 [2, 9]: 9.85 µM
5 | 4.98 | 31.67 | 22.50 | 40.84 |  |  | Cc1ccc2c(=O)nc(Nc3nc(C)cc(-c4ccccc4)n3)[nH]c2c1 [compound 11610] | IC50 [2, 7]: 17.4 µM
6 |  | 52.18 | 47.72 | 56.65 |  |  | CCc1c(C)nc(Nc2nc(C)c3cccc(OC)c3n2)[nH]c1=O [compound 12613] | IC50 [1, 10]: 17.6 µM; MTT Assay IC50(A431/MDBK): ratio in parentheses [1]: 0.65; IC50 [2, 11]: 11.5 µM
7 | 12.7 | 25.89 | 19.83 | 31.95 |  |  | Cc1ccc2nc(Nc3nc(=O)c(C)c(C)[nH]3)nc(C)c2c1 [12629 + TFA] | MTT Assay IC50(A431/MDBK): ratio in parentheses [1]: 0.85; IC50 [2, 7]: 10.7 µM
8 | 53.8 | 47.78 | 53.63 | 41.93 |  |  | COc1cccc2c(C)nc(Nc3nc(C(F)(F)F)cc(=O)[nH]3)nc12 [compound 11758] | IC50 [2, 7]: 576 µM
9 |  |  |  |  |  |  | CC(=O)c1cccc(NC(=S)Nc2ccc(S(=O)(=O)N3c4ccc(F)cc4CCC3C)cc2)c1 (stereo not drawn) [AD4-12825] | IC50 [1, 4]: 6.78 µM; IC50 [2, 5]: 5.46 µM; ICW assay [3]: 26.7866
10 |  | 25.06 | 16.45 | 33.67 |  |  | COCc1cc(=O)nc(Nc2nc(C)c3cc(C)cc(C)c3n2)[nH]1 [12644 + TFA] | IC50 [1, 10]: 46.9 µM; MTT Assay IC50(A431/MDBK): ratio in parentheses [1]: 0.66; IC50 [2, 11]: 30.9 µM
11 |  |  |  |  | 16.2 | 29.545 | O=C(Cc1ccccc1)NC(=S)Nc1ccc(S(=O)(=O)Nc2ccccc2)cc1 [AD4-12074] | IC50 ([2]; second value of 'a/b (c)', taken as MDBK cells, read-out: MTT Screen, second value of cell): 32.3 µM
12 |  |  |  |  | 19.5 | 83.13 | COc1ccc(/C=C/C(=O)NC(=S)Nc2ccc(S(=O)(=O)Nc3nc(C)cc(C)n3)cc2)cc1OC [AD4-11883] | MTT Screen, second value of cell ([2]; second value of 'a/b (c)', taken as MDBK cells): non- conver- gent
13 |  |  |  |  | 30.9 | 38.285 | CC(C)C(=O)NC(=S)Nc1ccc(S(=O)(=O)NCCc2ccccc2)cc1 [AD4-10611] | IC50 [2, 9]: 20 µM
14 | 26.8 | 62.56 | 61.28 | 63.84 |  |  | Cc1cc(C)nc(Nc2nc(-c3ccccc3)c3ccc(Cl)cc3n2)n1 [compound 11636] | IC50 [2, 11]: 14.7 µM
15 |  |  |  |  | 43.3 | 46.872 | CCc1nnc(NS(=O)(=O)c2ccc(NC(=S)NC(=O)/C=C/c3ccccc3)cc2)s1 [AD4-11367] | IC50 [2, 9]: 43.6 µM
16 | 10.8 | 37.35 | 48.80 | 25.90 |  |  | Cc1ccnc(Nc2nc(-c3ccccc3)c3cc(Cl)ccc3n2)n1 [compound 11455] | MTT Assay IC50(A431/MDBK): ratio in parentheses [1]: 2.16; IC50 [2, 7]: 23.4 µM
17 |  |  |  |  |  |  | Cc1ccc(NC(=S)Nc2ccc(S(=O)(=O)Nc3cc(Cl)cc(Cl)c3)cc2)cc1Cl [AD4-12522] | IC50 [1, 4]: 6.2 µM; IC50 [2, 5]: 5.33 µM; ICW assay [3]: 123.893
18 |  |  |  |  |  |  | CC1CCc2cc(F)ccc2N1S(=O)(=O)c1ccc(NC(=S)Nc2ccc(Cl)c(Cl)c2)cc1 (stereo not drawn) [AD4-12827] | IC50 [1, 4]: 6.49 µM; IC50 [2, 5]: 6.4 µM; ICW assay [3]: 45.9206
19 |  |  |  |  |  |  | O=S(=O)(Nc1ccccc1)c1ccc(NC(=S)Nc2ccc(Cl)cc2)cc1 [AD4-12783] | IC50 [1, 4]: 7 µM; IC50 [2, 5]: 7.62 µM; ICW assay [3]: 57.4272
